# Measured values reported in patent US20210189342A1, “COMPOSITIONS AND METHODS FOR MODULATING MONOCYTE AND MACROPHAGE INFLAMMATORY PHENOTYPES AND IMMUNOTHERAPY USES THEREOF” (Verseau Therapeutics, Inc., priority 2018, published 2021).
# Tested on: CD33
# Assay: siRNA dose response, CD33 mRNA knockdown, bDNA Assay
# Format: cell-based, human
# Conditions: SK-MEL-2, 24 hr
# Protocol: (§1) Dose response curves for siRNAs were generated in vitro using a variety of cell lines according to Table 4.
# (§2) Briefly, cells were seeded in 96-well plates and reverse transfected with siRNA, Lipofectamine® 2000 (0.5 uL/well; ThermoFisher), and, in some cases, a reporter plasmid (50 ng/well). The reporter plasmid (psiCHECK™-2, Promega) encoded both firefly luciferase and the gene of interest fused to renilla luciferase; silencing of the gene of interest results in proportional silencing of renilla luciferase but leaves firefly luciferase unaffected as an internal control.
# (§3) After 24 hr incubation at 37° C., mRNA knockdown was measured using an endpoint assay. For targets without a reporter plasmid, a branched DNA (bDNA) assay was performed according to the manufacturer's instructions (QuantiGene® Singleplex Gene Expression Assay, ThermoFisher) to measure both the target gene and GAPDH (housekeeping gene) mRNA. Data are plotted as siRNA concentration (nM) vs. remaining mRNA (ratio of target gene to GAPDH, normalized to mock siRNA-transfected cells). For targets with a reporter plasmid, a Dual-Glo® Luciferase Assay was performed according to the manufacturer's instructions (Promega) to measure firefly and renilla luciferase expression. Data are plotted as siRNA concentration (nM) vs. remaining mRNA (ratio of renilla to firefly luminescence, normalized to mock siRNA-transfected cells).
# (§4) For all dose response curves, a 4-parameter logistic model was applied to determine the IC50 of each siRNA sequence (Table 5 and FIG. 2). Data shown in Table 5 and FIG. 2 represent the mean of quadruplicates, +/−standard deviation.
row,Substance,IC50 [nM]
1,"XD-09732: siRNA targeting CD33 (sense 5'-ggccccAGGAcuAcucAcudTsdT-3'; antisense 5'-AGUGAGuAGUCCUGGGGCCdTsdT-3'; as printed in the source, key not given here)",5.4
2,"XD-09734: siRNA targeting CD33 (sense 5'-acuccucGGuGcucAuAAudTsdT-3'; antisense 5'-AUuAUGAGcACCGAGGAGUdTsdT-3'; as printed in the source, key not given here)",0.74
3,"XD-09735: siRNA targeting CD33 (sense 5'-caAcGucAccuAuguuccAdTsdT-3'; antisense 5'-UGGAAcAuAGGUGACGUUGdTsdT-3'; as printed in the source, key not given here)",0.818
4,"XD-09736: siRNA targeting CD33 (sense 5'-ucAccuAuGuuccacAGAAdTsdT-3'; antisense 5'-UUCUGUGGAAcAuAGGUGAdTsdT-3'; as printed in the source, key not given here)",0.176
5,"XD-09737: siRNA targeting CD33 (sense 5'-cccAAcAAcuGGuaucuuudTsdT-3'; antisense 5'-AAAGAuACcAGUUGUUGGGdTsdT-3'; RNA with 2'-O-methyl and phosphorothioate modifications, case key not given here, as printed in the source, key not given here)",0.334
6,"XD-09738: siRNA targeting CD33 (sense 5'-ccAGAGcAGGAGugGuucAdTsdT-3'; antisense 5'-UGAACcACUCCUGCUCUGGdTsdT-3'; RNA with 2'-O-methyl and phosphorothioate modifications, case key not given here, as printed in the source, key not given here)",0.22

# Tested on: IGSF6
# Assay: siRNA dose response, IGSF6 mRNA knockdown, Dual-Glo Luciferase Assay
# Format: cell-based, human
# Conditions: Hepa1-6 + reporter plasmid, 24 hr
# Protocol: as §1, §2, §3, §4
row,Substance,IC50 [nM]
1,"XD-09647: siRNA targeting IGSF6 (sense 5'-ggccAuAGAAAcGuuuuAAdTsdT-3'; antisense 5'-UuAAAACGUUUCuAUGGCCdTsdT-3'; as printed in the source, key not given here)",0.069
2,"XD-09648: siRNA targeting IGSF6 (sense 5'-ccAuAGAAAcGuuuuAAuudTsdT-3'; antisense 5'-AAUuAAAACGUUUCuAUGGdTsdT-3'; as printed in the source, key not given here)",0.503
3,"XD-09649: siRNA targeting IGSF6 (sense 5'-acAuAuAucAucAgGucuudTsdT-3'; antisense 5'-AAGACCUGAUGAuAuAUGUdTsdT-3'; RNA with 2'-O-methyl and phosphorothioate modifications, case key not given here, as printed in the source, key not given here)",0.503

# Tested on: CXorf21
# Assay: siRNA dose response, CXorf21 mRNA knockdown, bDNA Assay
# Format: cell-based, human
# Conditions: THP-1, 24 hr
# Protocol: as §1, §2, §3, §4
row,Substance,IC50 [nM]
1,"XD-10502: siRNA targeting CXorf21 (sense 5'-cuGucAGAAGGGuaucucAdTsdT-3'; antisense 5'-UGAGAuACCCUUCUGAcAGdTsdT-3'; RNA with 2'-O-methyl and phosphorothioate modifications, case key not given here, as printed in the source, key not given here)",6.03
2,"XD-10503: siRNA targeting CXorf21 (sense 5'-cuAcGuGAGcuGcaAAucAdTsdT-3'; antisense 5'-UGAUUUGcAGCUcACGuAGdTsdT-3'; RNA with 2'-O-methyl and phosphorothioate modifications, case key not given here, as printed in the source, key not given here)",0.654
3,"XD-10504: siRNA targeting CXorf21 (sense 5'-gguGAuGGccAuuaAuucAdTsdT-3'; antisense 5'-UGAAUuAAUGGCcAUcACCdTsdT-3'; as printed in the source, key not given here)",1.76
4,"XD-10505: siRNA targeting CXorf21 (sense 5'-cauuAuGGAcAccguGuuudTsdT-3'; antisense 5'-AAAcACGGUGUCcAuAAUGdTsdT-3'; RNA with 2'-O-methyl and phosphorothioate modifications, case key not given here, as printed in the source, key not given here)",13.1
5,"XD-10506: siRNA targeting CXorf21 (sense 5'-gucuGAAcucAucauGAcAdTsdT-3'; antisense 5'-UGUcAUGAUGAGUUcAGACdTsdT-3'; as printed in the source, key not given here)",0.75
6,"XD-10508: siRNA targeting CXorf21 (sense 5'-caAuGuAAAuccAuAGAGAdTsdT-3'; antisense 5'-UCUCuAUGGAUUuAcAUUGdTsdT-3'; as printed in the source, key not given here)",1.65

# Tested on: LST1
# Assay: siRNA dose response, LST1 mRNA knockdown, bDNA Assay
# Format: cell-based, human
# Conditions: THP-1, 24 hr
# Protocol: as §1, §2, §3, §4
row,Substance,IC50 [nM]
1,"XD-09750: siRNA targeting LST1 (sense 5'-cuGAucAuuucGccuAAAAdTsdT-3'; antisense 5'-UUUuAGGCGAAAUGAUcAGdTsdT-3'; RNA with 2'-O-methyl and phosphorothioate modifications, case key not given here, as printed in the source, key not given here)",3.59
2,"XD-09751: siRNA targeting LST1 (sense 5'-cauuucGccuAAAaGAGcAdTsdT-3'; antisense 5'-UGCUCUUUuAGGCGAAAUGdTsdT-3'; RNA with 2'-O-methyl and phosphorothioate modifications, case key not given here, as printed in the source, key not given here)",1.54
3,"XD-09752: siRNA targeting LST1 (sense 5'-gccuAAAAGAGcAaGGAcudTsdT-3'; antisense 5'-AGUCCUUGCUCUUUuAGGCdTsdT-3'; RNA with 2'-O-methyl and phosphorothioate modifications, case key not given here, as printed in the source, key not given here)",0.737
4,"XD-09754: siRNA targeting LST1 (sense 5'-caAGGAGGAuccAaGAGcudTsdT-3'; antisense 5'-AGCUCUUGGAUCCUCCUUGdTsdT-3'; RNA with 2'-O-methyl and phosphorothioate modifications, case key not given here, as printed in the source, key not given here)",0.052
5,"XD-09755: siRNA targeting LST1 (sense 5'-ggAuccAAGAGcugAcuAudTsdT-3'; antisense 5'-AuAGUcAGCUCUUGGAUCCdTsdT-3'; RNA with 2'-O-methyl and phosphorothioate modifications, case key not given here, as printed in the source, key not given here)",0.046
6,"XD-09756: siRNA targeting LST1 (sense 5'-ucucGAGccuccGuucAAAdTsdT-3'; antisense 5'-UUUGAACGGAGGCUCGAGAdTsdT-3'; RNA with 2'-O-methyl and phosphorothioate modifications, case key not given here, as printed in the source, key not given here)",6.6
7,"XD-09758: siRNA targeting LST1 (sense 5'-ugAucAucAucAAaAcuuAdTsdT-3'; antisense 5'-uAAGUUUUGAUGAUGAUcAdTsdT-3'; as printed in the source, key not given here)",8.21

# Tested on: CCR5
# Assay: siRNA dose response, CCR5 mRNA knockdown, Dual-Glo Luciferase Assay
# Format: cell-based, human
# Conditions: Hepal-6 + reporter plasmid, 24 hr
# Protocol: as §1, §2, §3, §4
row,Substance,IC50 [nM]
1,"XD-10550: siRNA targeting CCR5 (sense 5'-ggAAcAAGAuGGAuuAucAdTsdT-3'; antisense 5'-UGAuAAUCcAUCUUGUUCCdTsdT-3'; as printed in the source, key not given here)",0.017
2,"XD-10551: siRNA targeting CCR5 (sense 5'-ccAuAcAGucAGuaucAAudTsdT-3'; antisense 5'-AUUGAuACUGACUGuAUGGdTsdT-3'; as printed in the source, key not given here)",0.046
3,"XD-10552: siRNA targeting CCR5 (sense 5'-cauuAAAGAuAGucAucuudTsdT-3'; antisense 5'-AAGAUGACuAUCUUuAAUGdTsdT-3'; as printed in the source, key not given here)",0.07
4,"XD-10553: siRNA targeting CCR5 (sense 5'-agGuAuGGuuAAuaAGuuudTsdT-3'; antisense 5'-AAACUuAUuAACcAuACCUdTsdT-3'; as printed in the source, key not given here)",0.361
5,"XD-10558: siRNA targeting CCR5 (sense 5'-gcAcAuAcuuGAGacuGuudTsdT-3'; antisense 5'-AAcAGUCUcAAGuAUGUGCdTsdT-3'; as printed in the source, key not given here)",1.05
6,"XD-10559: siRNA targeting CCR5 (sense 5'-gcAAcGAAGGGAAauGucudTsdT-3'; antisense 5'-AGAcAUUUCCCUUCGUUGCdTsdT-3'; as printed in the source, key not given here)",1.02
